Experimental data from PMC10955127 (Frontiers in Pharmacology, 2024).
Like-named read-outs stand apart in the source and are kept apart here.

Key:
[1] = In vitro skin penetration and metabolism, fresh viable pig skin on static Franz cells; conditions: for Total recovery: SA corrected by the amount of SA present in the formulation
Source text: Fresh viable pig skin (without hot steam treatment, by-product from meat industry) was obtained from a local, commercial butcher (Hammoor, Germany). The back skin was from female pigs (bred from “Dänische Landrasse” (female) and Pietrain (male) pigs, ~130 days old, 100 kg body weight). Pig skin samples were gently dry-shaved and washed with water before use. For the experiment, 2 replicate discs from each of 3 donors were used.
Skin of full-thickness was mounted on static Franz cells with a 4.9 cm² application area. The receptor compartment of the diffusion cell was filled with approx. 5 ml RF (1% BSA, 0.9% NaCl, 0.05% gentamycin sulfate in water), above a magnetic stirrer set to low rotation. […] The experiment was conducted using non-occluded conditions.
The dermal absorption was calculated as the total amount present within epidermis (without the amount in the total SC strips), dermis and RF.

[2] = system: Thyroid (TR and TPO only); parameters: method as in ToxCast; conditions: ref ToxCast, cited from earlier work; for Thyroid (TR and TPO only): Experimental Data (call): Tier 0
rats = conditions: highest dose tested; KS2; cited from earlier work
[3] = KS2; cited from earlier work
estrogen receptor [4] = system: estrogen receptor; parameters: method as in ToxCast database; conditions: ref ToxCast database; cited from earlier work
estrogen receptor [5] = system: estrogen receptor; parameters: method as in ToxCast database; conditions: ref ToxCast database, cited from earlier work
estrogen receptor [6] = system: estrogen receptor; parameters: method as in ToxCast database; conditions: ref ToxCast database, cited from earlier work; remark: listed apart in the source
estrogen receptor [7] = system: estrogen receptor; parameters: method as in ToxCast database; conditions: ref ToxCast database, cited from earlier work; for AC50: read-out: Estrogen pathway Reporter protein Agonist: AC50
estrogen receptor [8] = system: estrogen receptor; parameters: method as in ToxCast database; conditions: ref ToxCast database; cited from earlier work; remark: listed apart in the source
estrogen receptor [9] = system: estrogen receptor; parameters: method as in ToxCast database; conditions: ref ToxCast database, cited from earlier work; remark: listed apart in the source
Aromatase = system: Aromatase; parameters: method as in ToxCast database; conditions: ref ToxCast database; cited from earlier work
thyroid pathway [10] = system: thyroid pathway; parameters: method as in ToxCast database; conditions: ref ToxCast database; cited from earlier work
TSHR = system: TSHR; parameters: method as in ToxCast database; conditions: ref ToxCast database; cited from earlier work
thyroid pathway [11] = system: thyroid pathway; parameters: method as in ToxCast database; conditions: ref ToxCast database; cited from earlier work; remark: listed apart in the source
thyroid pathway [12] = system: thyroid pathway; parameters: method as in ToxCast database; conditions: ref ToxCast database; cited from earlier work; remark: listed apart in the source
[13] = ref PubChem or the ECHA database; cited from earlier work
in vitro = in vitro ADME
Experimental: […]. Samples were precipitated with an equal volume of acetonitrile containing internal standards (1 μM diazepam, 1 μM griseofulvin, 10 μM diclofenac) and then centrifuged (4800 x g, room temperature, 5 min) before analysis by UHPLC-MS/HRMS.
The amount of compound in the samples was expressed as percentage of remaining compound compared to time point zero (=100%). These percentages were plotted against the corresponding time points. In vitro intrinsic clearance (CLint) and half-life (t1/2) estimates were determined using the rate of precursor disappearance and following formula, based on the well-stirred liver model (Obach 1999):
t1/2 = half-life [min]; k = slope from the linear regression of log [test compound] versus time plot [1/min]
Where CLint = in vitro intrinsic clearance [μl/min/10^6 cells]; t1/2 = half-life [min]; k = slope of the linear regression of log [test compound] versus time plot [1/min]; V = ratio of incubation volume and cell number and fu = unbound fraction in the blood. […]

estrogen receptor (ER) = conditions: cited from earlier work; for Estrogen: Experimental Data (call): Tier 0; for Estrogen: Experimental Data (call) / Estrogen: assays active / assays: ref ToxCast
androgen receptor (AR) = system: androgen receptor (AR); parameters: method as in ToxCast; conditions: ref ToxCast, cited from earlier work
androgen receptor [14] = system: androgen receptor; parameters: method as in ToxCast database; conditions: ref ToxCast database; cited from earlier work
androgen receptor [15] = system: androgen receptor; parameters: method as in ToxCast database; conditions: ref ToxCast database; cited from earlier work; remark: listed apart in the source
androgen receptor [16] = system: androgen receptor; parameters: method as in ToxCast database; conditions: ref ToxCast database; cited from earlier work; remark: listed apart in the source
androgen receptor [17] = system: androgen receptor; parameters: method as in ToxCast database; conditions: ref ToxCast database; cited from earlier work; remark: listed apart in the source
mice = conditions: KS2; cited from earlier work
[18] = parameters: method as in SCCS, 2023a; conditions: frozen human skin, 14C-radio-labelled BSal in a formulation at 0.5%; ref SCCS, 2023a; cited from earlier work
[19] = 24.14 mg/kg/day product, 0.5% BSal, 10.5% absorption
[20] = parameters: method as in PubChem or the ECHA database; conditions: at 25°C; ref PubChem or the ECHA database; cited from earlier work
H295R cell line [21] = system: H295R cell line; parameters: method as in ToxCast database; conditions: ref ToxCast database, cited from earlier work
H295R cell line [22] = system: H295R cell line; parameters: method as in ToxCast database; conditions: ref ToxCast database, cited from earlier work; remark: listed apart in the source
H295R cell line [23] = system: H295R cell line; parameters: method as in ToxCast database; conditions: ref ToxCast database, cited from earlier work; remark: listed apart in the source
THRa = system: THRa; parameters: method as in ToxCast database; conditions: ref ToxCast database; cited from earlier work
in vivo = conditions: human
[24] = ref PubChem or the ECHA database; cited from earlier work; remark: listed apart in the source
[25] = at 35°C; ref PubChem or the ECHA database; cited from earlier work
[26] = Fraction unbound in the plasma (Fup); conditions: human
[27] = parameters: method as in ToxCast database; conditions: ref ToxCast database; cited from earlier work
MCF-7 cells = type: cell-based; conditions: 1,000 µM SA or 1 μM trichostatin A, analysis Method 1
[28] = 24 h after application of 0.5% BSal in formulation
[29] = 24 h after application of 0.5% BSal in formulation, mean ± SD, n = 6

Structure (SMILES): O=C(O)c1ccccc1 [BA, benzoic acid]
- Dermal absorption of individual analytes ([1]; 24 h, epidermis + dermis + receptor fluid): 1.2 ± 0.7 percentage of the applied dose
- Total recovery [1, 28]: 19.8 ± 17.2 percentage of the applied dose
- Dermis [1, 29]: 1.2 ± 0.7 percentage of the applied dose
- Epidermis [1, 29]: < LOQ*
- Receptor fluid [1, 29]: < LOQ*
- Stratum corneum [1, 29]: 16.8 ± 16.3 percentage of the applied dose
- Surface ([1]; 24 h after application of 0.5% BSal in formulation, mean ± SD, n = 6 skin discs (three donors)): 1.7 ± 1.2 percentage of the applied dose
- Thyroid (TR and TPO only): Experimental Data (call) [2]: Negative
- Thyroid (TR and TPO only): assays active / assays [2]: 0/12 active
- Reproductive toxicity NOAEL (rats): NOAEL 900 mg/kg bw (highest dose tested)
- Developmental Toxicity NOAEL [3]: NOAEL 1306 mg/kg bw
- Estrogen pathway receptor binding: Call (estrogen receptor [4]): Negative
- Estrogen pathway Dimerisation: Call (estrogen receptor [5]): Negative
- Estrogen pathway mRNA induction: Call (estrogen receptor [6]): Negative
- Estrogen pathway Reporter protein Agonist: Call (estrogen receptor [7]): Positive
- AC50 (estrogen receptor [7]): 7.54 µM
- Estrogen pathway Reporter protein Antagonist: Call (estrogen receptor [8]): Negative
- Estrogen pathway Cell Proliferation: Call (estrogen receptor [9]): Negative
- Steroidogenesis Aromatase: Call (Aromatase): Negative
- Thyroid pathway mRNA induction: Call (thyroid pathway [10]): Negative
- Thyroid pathway Regulation of transcription factor activity (TSHR): Call (TSHR): Negative
- Thyroid pathway Reporter protein Agonist: Call (thyroid pathway [11]): Negative
- Thyroid pathway Reporter protein Antagonist: Call (thyroid pathway [12]): Negative
- Vapor pressure [13]: 0.1 Pa

Structure (SMILES): OCc1ccccc1 [BAlc, benzyl alcohol]
- Stratum corneum [1]: < LOQ*
- Surface [1]: < LOQ*
- Time within which rapidly metabolized in PHH (in vitro; both, human, hepatocytes, 5 µM): ≤ 30 min
- Estrogen: Experimental Data (call) (estrogen receptor (ER)): Negative
- Estrogen: assays active / assays (estrogen receptor (ER)): 0/18 active
- Androgen: Experimental Data (call) (androgen receptor (AR); Tier 0): Negative
- Androgen: assays active / assays (androgen receptor (AR)): 0/14 active
- Thyroid (TR and TPO only): Experimental Data (call) [2]: Negative
- Thyroid (TR and TPO only): assays active / assays [2]: 0/12 active
- Estrogen pathway Dimerisation: Call (estrogen receptor [5]): Negative
- Estrogen pathway mRNA induction: Call (estrogen receptor [6]): Negative
- Estrogen pathway Reporter protein Agonist: Call (estrogen receptor [7]): Negative
- Estrogen pathway Reporter protein Antagonist: Call (estrogen receptor [8]): Negative
- Androgen pathway Dimerisation: Call (androgen receptor [14]): Negative
- Androgen pathway mRNA induction: Call (androgen receptor [15]): Negative
- Androgen pathway Reporter protein Agonist: Call (androgen receptor [16]): Negative
- Androgen pathway Reporter protein Antagonist: Call (androgen receptor [17]): Negative
- Steroidogenesis Aromatase: Call (Aromatase): Negative
- Thyroid pathway mRNA induction: Call (thyroid pathway [10]): Negative
- Thyroid pathway Regulation of transcription factor activity (TSHR): Call (TSHR): Negative
- Thyroid pathway Reporter protein Agonist: Call (thyroid pathway [11]): Negative
- Thyroid pathway Reporter protein Antagonist: Call (thyroid pathway [12]): Negative
- Vapor pressure [13]: 7 Pa
- Developmental Toxicity NOAEL (mice): NOAEL: 200 mg/kg

Structure (SMILES): O=C(OCc1ccccc1)c1ccccc1O [BSal, benzyl salicylate]
- Receptor fluid [1]: < LOQ*
- Initial concentration detected (in vitro; after 90, 120, and 240 min): 0.1%–0.2%
- Initial concentration remaining (in vitro; after 30 min, 20 µM BSal): 10%
- half-life at 20 µM (in vitro; both sexes, human, hepatocytes, 20 µM, 0.8 million cells/ml, read-out: Half-life in PHH): 9.2 min
- hepatocyte CLint at 20 µM (in vitro; both sexes, human, hepatocytes, PHH, read-out: In vitro intrinsic clearance (CLint, in vitro)): 94.2 µL/min/1e6 cells
- Skin absorption [18]: 9.01 % of the applied dose
- SED total [19]: 24.14 × 0.5/100 × 10.5/100 = 0.01267 mg/kg/d
- Estrogen: Experimental Data (call) (estrogen receptor (ER)): Positive
- AC50 (estrogen receptor (ER); binding assay for ERα, assay name OT_ER_ERaERa_0480, ref ToxCast database, read-out: Lowest reported AC50): 36.5 µM
- Estrogen: assays active / assays (estrogen receptor (ER)): 9 out of 18
- Estrogen: assays active / assays (estrogen receptor (ER); listed as Benzyl salicylate): 9/18 assays active
- Thyroid (TR and TPO only): Experimental Data (call) [2]: Negative
- Thyroid (TR and TPO only): assays active / assays [2]: 0/11 active
- pKa [20]: 9.82
- Estrogen pathway Dimerisation: Call (estrogen receptor [5]): Positive
- AC50 (estrogen receptor [5]; read-out: Estrogen pathway Dimerisation: AC50): 36.5 µM
- Estrogen pathway mRNA induction: Call (estrogen receptor [6]): Positive
- AC50 (estrogen receptor [6]; read-out: Estrogen pathway mRNA induction: AC50): 37 µM
- Estrogen pathway Reporter protein Agonist: Call (estrogen receptor [7]): Positive
- AC50 (estrogen receptor [7]): 39.2 µM
- Estrogen pathway Reporter protein Antagonist: Call (estrogen receptor [8]): Negative
- Estrogen pathway Cell Proliferation: Call (estrogen receptor [9]): Positive
- AC50 (estrogen receptor [9]; read-out: Estrogen pathway Cell Proliferation: AC50): 85.2 µM
- Steroidogenesis Aromatase: Call (Aromatase): Negative
- Steroidogenesis Corticosterone in H295R cell line: call (H295R cell line [21]): Positive
- AC50 (H295R cell line [21]; read-out: Steroidogenesis Corticosterone in H295R cell line: AC50): 36.8 µM
- Steroidogenesis 17alpha-hydroxyprogesterone in H295R cell line: call (H295R cell line [22]): Positive
- AC50 (H295R cell line [22]; read-out: Steroidogenesis 17alpha-hydroxyprogesterone in H295R cell line: AC50): 54.7 µM
- Steroidogenesis Progesterone in H295R cell line: call (H295R cell line [23]): Positive
- AC50 (H295R cell line [23]; read-out: Steroidogenesis Progesterone in H295R cell line: AC50): 43.7 µM
- Thyroid pathway receptor binding (THRa): Call (THRa): Negative
- Thyroid pathway mRNA induction: Call (thyroid pathway [10]): Negative
- Thyroid pathway Regulation of transcription factor activity (TSHR): Call (TSHR): Negative
- Thyroid pathway Reporter protein Agonist: Call (thyroid pathway [11]): Negative
- Thyroid pathway Reporter protein Antagonist: Call (thyroid pathway [12]): Negative
- NOAEL (in vivo): 123 mg/kg/day
- Water solubility [24]: 8800 µg/mL
- Partition coefficient (Log Pow) [25]: 4
- Vapor pressure [13]: 0.01 Pa
- fraction unbound [26]: 0.0066

Structure (SMILES): O=Cc1ccccc1 [Benzaldehyde, benzaldehyde]
- Total recovery [1, 28]: < LOQ*

Structure (SMILES): O=C(O)CNC(=O)c1ccccc1 [Hippuric acid, hippuric acid]
- Receptor fluid [1]: < LOQ*
- Surface [1]: < LOQ*
- Result in all 259 ToxCast assays [27]: SA: alerts for developmental toxicity, reproductive toxicity, nephrotoxicity, hepatotoxicity, Hippuric acid: negative in all 259 ToxCast assays
- Steroidogenesis Aromatase: Call (Aromatase): Negative
- Thyroid pathway Reporter protein Agonist: Call (thyroid pathway [11]): Negative
- Thyroid pathway Reporter protein Antagonist: Call (thyroid pathway [12]): Negative

Structure (SMILES): CC(/C=C/C(=O)NO)=C\[C@@H](C)C(=O)c1ccc(N(C)C)cc1 [trichostatin A, Trichostatin A]
- Number of genes altered by > 1.5-fold or < -1.5-fold (MCF-7 cells; 6 h): ~10,000 genes
- Number of genes altered by > 1.5-fold or < -1.5-fold (MCF-7 cells; 24 h): ~10,000 genes
